Experimental data as given in US10450300B2, “Wnt signaling pathway inhibitors and therapeutic applications thereof” (Suzhou Yunxuan Yiyao Keji Youxian Gongsi, priority 2015, dated 2019).

What follows are molecules tested on Wnt pathway (assay: Wnt pathway Super-top flash (STF) reporter gene assay (primary assay)). Conditions: HEK293 STF cells co-cultured 1:1 with L Wnt3A cells; 48 h incubation; inhibition of luminescence signaling.
Type: cell-based
Experimental: The primary assay is based on Wnt pathway Super-top flash (STF) reporter gene assay:
HEK293 STF stable clones (HEK293 cells stably transfected with “Super-Top Flash” TCF-luciferase reporter plasmid) were kept in complete culture medium (DMEM with 4 mM L-Gln, 1.5 g/L sodium bicarbonate and 4.5 g/L glucose containing 6 μg/mL Blasticidin and 10% FBS). L Wnt3A cells (CRL-2647, ATCC) were kept in DMEM (Gibico) containing 10% FBS (Hyclone). HEK293 STF and L Wnt3A cells were harvested when 90% confluence and cell suspension was mixed with a fixed ratio of 1:1 (HEK293 STF: L Wnt3A). 100 μL/well of mixed cells suspension was added to the 96-well-plate with final cell concentration of 12,000 cells/well and then cultured for an additional 24 hours before adding compounds.
Compounds were diluted in DMSO in sequence and then diluted with DMEM medium. 20 μL medium containing compound was added to the cells according to the pre-setting dose. Cell plates were incubated at 37° C. for an additional 48 hours.
50 μL luciferase solution (Bright-Glo, Promega) was added to each well […] the 48 h incubation. The plates were incubated at room temperature for 5 min under gentle shaking. Luminescence signaling was measured with a plate reader (PHERAstar FS, BMG). The IC50 (potency) of compounds was calculated based on the inhibition of luminescence signaling.

Structure (SMILES) | IC50 [nM]
Cc1cc(-c2ccc(CNc3ncnc(-c4ccc5ccccc5c4)c3C#N)cc2)ccn1 [Compound A-144] | 40
Cc1cc(-c2ncc(CNc3ncnc(N4CCn5nncc5C4)c3F)cc2C#N)ccn1 [Compound A-92] | 10
O=S1(=O)CCN(c2ccc(CNc3ncnc(-c4ccc5ncccc5c4)c3F)cn2)CC1 [Compound A-68] | 16
Cc1cc(-c2ccc(CNc3ccnc(-c4ccc5ncccc5c4)n3)cc2)ccn1 [Compound A-157] | 3000
Cc1cc(-c2ncc(CNc3nccc(-c4ccc5nonc5c4)c3F)cc2F)ccn1 [Compound A-114] | 8
Cc1cc(-c2ccc(CNc3ccnc(N4CCc5ncccc5C4)n3)cc2)ccn1 [Compound A-158] | 3000
N#Cc1ccc(NCCNc2nsc(-c3ccc4ncccc4c3)n2)nc1 [Compound A-200] | 25
Cn1nccc1-c1ccc(CNc2ncnc(-c3ccc4ccccc4c3)c2F)cc1 [Compound A-39] | 129
Cc1cc(-c2ncc(CNc3ncnc(-c4ccc5ncccc5c4)c3F)cc2C)ccn1 [Compound A-34] | 3
N#Cc1ccc2cc(CNc3nccc(-c4ccc5ncccc5c4)n3)cnc2c1 [Compound A-177] | 100
Cc1cc(-c2ccc(CNc3ccnc(-c4ccc5ccccc5c4)n3)cc2)ccn1 [Compound A-151] | 2000
Cc1cc(-c2ncc(CNc3ncnc(N4CCn5ncnc5C4)c3F)cc2F)ccn1 [Compound A-58] | 34
O=S1(=O)CCN(c2ccc(CNc3nccc(-c4ccc5ncccc5c4)c3F)cn2)CC1 [Compound A-111] | 10
Cc1cc(-c2ccc(CNc3ncnc(N4CCc5c(F)cccc5C4)c3F)cc2)ccn1 [Compound A-24] | 37
Fc1c(NCc2ccc3cnccc3c2)ncnc1-c1ccc2ncccc2c1 [Compound A-41] | 55
Cc1cc(-c2ccc(CNc3cc(N4CCc5ccccc5C4)ncn3)cc2)ccn1 [Compound A-133] | 34
Cc1cc(-c2ccc(CNc3ncnc(-c4ccc5c(cnn5C)c4)c3F)cc2)ccn1 [Compound A-15] | 19

Structure (SMILES) | IC50 [nM]
Cc1cc(-c2ncc(CNc3nccc(-c4cncc(F)c4)c3F)cc2F)ccn1 [Compound A-115] | 7
Cc1cc(-c2ccc(CNc3ncnc(-c4ccc5ccccc5c4)c3F)s2)ccn1 [Compound A-29] | 577
N#Cc1cnc2cc(CNc3nccc(-c4ccc5ncccc5c4)n3)ccc2c1 [Compound A-179, 7-((4-(quinolin-6-yl)pyrimidin-2-ylamino)methyl)quinoline-3-carbonitrile] | 500
Cc1cc(-c2ncc(CNc3ncnc(NCc4cccnc4)c3F)cc2F)ccn1 [Compound A-82] | 338
CSc1nc(NCc2ccc(-c3ccnc(C)c3)cc2)cc(-c2ccc3ccccc3c2)n1 [Compound A-140] | 3000
Cc1cc(-c2ccc(CNc3ncnc(-c4ccccc4)c3F)cc2)ccn1 [Compound A-17] | > 1000
O=S1(=O)CCN(c2ccc(CNc3nccc(-c4ccc5ncccc5c4)n3)cn2)CC1 [Compound A-180] | 300
Cc1cc(-c2ccc(CNc3ncnc(N4CCc5ncccc5C4)c3F)cn2)ccn1 [Compound A-32] | 2
Cc1cc(-c2ccc(CNc3nccc(N4CCc5ncccc5C4)n3)cc2)ccn1 [Compound A-156] | 12
Cc1cc(-c2ccc(CNc3nccc(-c4ccc5ncncc5c4)n3)cc2)ccn1 [Compound A-159] | 17
Cc1cc(-c2ncc(CNc3ncnc(N4CCn5nnnc5C4)c3F)cc2C#N)ccn1 [Compound A-91] | 53
Cc1cn(-c2ccc(CNc3nccc(-c4ccc5ncccc5c4)c3F)cc2)cn1 [Compound A-107] | 16
Cc1cc(-c2ncc(CNc3nccc(-c4cc5cccnc5cn4)n3)cc2C#N)ccn1 [Compound A-183, 5-((4-(1,7-naphthyridin-6-yl)pyrimidin-2-ylamino)methyl)-2′-methyl-2,4′-bipyridine-3-carbonitrile] | 2.1
Cc1cc(-c2ccc(CNc3ncnc(-c4ccc5cccnc5c4)c3F)cc2)ccn1 [Compound A-3] | 36
Cc1cc(-c2ncc(CNc3ncnc(N4CCNC(=O)C4)c3F)cc2F)ccn1 [Compound A-80] | 768
Cc1cc(-c2ccc(CNc3ncnc(-c4ccc5ccccc5c4)c3F)cn2)ccn1 [Compound A-30] | 23

The remaining lines, values ahead:

IC50 [nM] | Structure (SMILES)
0.11 | Fc1c(-c2ccc3ncccc3c2)ccnc1NCc1ccc(-c2ccncc2)cc1 [Compound A-104]
0.34 | Cc1cc(-c2ncc(CNc3ncnc(-c4cc5cccnc5cn4)c3F)cc2C#N)ccn1 [Compound A-86]
0.09 | Cc1cc(-c2ncc(CNc3nsc(-c4ccc5ncccc5c4)n3)cc2C#N)ccn1 [Compound A-194]
1.2 | Cc1cc(-c2ncc(CNc3ncnc(N4CCc5nccnc5C4)c3F)cc2F)ccn1 [Compound A-90]
0.4 | Cc1cc(-c2ccc(CNc3nsc(-c4ccc5ncccc5c4)n3)cn2)ccn1 [Compound A-190]
0.14 | Cc1cc(-c2ncc(CNc3ncnc(-c4cc5cccnc5cn4)c3F)cc2F)ccn1 [Compound A-85, 5-fluoro-N-((3-fluoro-2′-methyl-2,4′-bipyridin-5-yl)methyl)-6-(1,7-naphthyridin-6-yl)pyrimidin-4-amine]
0.18 | Cc1cc(-c2ccc(CNc3nccc(-c4ccc5ncccc5c4)c3F)cc2)ccn1 [Compound A-97]
1 | Cc1cc(-c2ncc(CNc3ncnc(N4CCc5ncccc5C4)c3F)cc2C#N)ccn1 [Compound A-56]
0.24 | COc1cc(CNc2nccc(-c3ccc4ncccc4c3)c2F)cnc1-c1ccnc(C)c1 [Compound A-106]
0.06 | COc1cc(CNc2nccc(-c3ccc4ncccc4n3)c2F)cnc1-c1ccnc(C)c1 [Compound A-125]
2 | Cc1cc(-c2ncc(CNc3nccc(-c4ccc(=O)n(C)c4)c3F)cc2F)ccn1 [Compound A-117]
0.26 | COc1cc(CNc2ncnc(-c3cc4cccnc4cn3)c2F)cnc1-c1ccnc(C)c1 [Compound A-84]
0.39 | Cc1cc(-c2ncc(CNc3ncnc(-c4ccc5ncccc5c4)c3F)cc2C#N)ccn1 [Compound A-57]
0.1 | Cc1cc(-c2ncc(CNc3nsc(-c4ccc5ncccc5c4)n3)cc2F)ccn1 [Compound A-192]
0.78 | COc1cc(CNc2nsc(-c3cc4cccnc4cn3)n2)cnc1-c1ccnc(C)c1 [Compound A-196, N-((3-methoxy-2′-methyl-2,4′-bipyridin-5-yl)methyl)-5-(1,7-naphthyridin-6-yl)-1,2,4-thiadiazol-3-amine]
0.51 | Cc1cc(-c2ncc(CNc3ncnc(N4CCn5nccc5C4)c3F)cc2F)ccn1 [Compound A-87]
0.38 | Cc1cc(-c2ncc(CNc3nsc(-c4ccc5ncccc5c4)n3)cc2C)ccn1 [Compound A-191]
1.6 | N#Cc1ccc2nc(CNc3ncnc(N4CCc5ncccc5C4)c3F)ccc2c1 [Compound A-74]
0.5 | Cc1cc(-c2ncc(CNc3ncnc(-c4ccc5ncccc5c4)c3F)cc2F)ccn1 [Compound A-36]
0.04 | Cc1cc(-c2ncc(CNc3nccc(-c4ccc5ncccc5n4)c3F)cc2C#N)ccn1 [Compound A-126]
0.54 | Cc1cc(-c2ccc(C(C)Nc3nccc(-c4ccc5ncccc5c4)c3F)cc2)ccn1 (stereo not drawn) [Compound A-102]
